System: 379773-124-R-J2-PDC spheroid viability
Assay: Anticancer human tumor 379773-124-R-J2-PDC patient-derived endometrial carcinoma cell line growth inhibition [POLQ]
Conditions: spheroids with HUVEC and MSC; for IC50: curve of first compound; for viability, T/C: stronger effect = lower value
Procedure, shortened: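 Growth inhibition in 3D: complex spheroids (tumor PDC, HUVEC, MSC) treated with POLQ inhibitor combinations; where Cmax unknown, highest tested concentration 10 microM, except SN-38 at 1 microM.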

[1] = second compound 0.0316 µM, first compound 0.0316 µM
[2] = second compound 0.0316 µM, first compound 0.1 µM
[3] = second compound 0.1 µM, first compound 0.0316 µM
[4] = second compound 0.1 µM, first compound 0.1 µM
[5] = second compound 0.316 µM, first compound 0.0316 µM
[6] = second compound 0.316 µM, first compound 0.1 µM
[7] = second compound 1 µM, first compound 0.0316 µM
[8] = second compound 1 µM, first compound 0.1 µM
[9] = second compound 3.16 µM, first compound 0.0316 µM
[10] = second compound 3.16 µM, first compound 0.1 µM
[11] = second compound 10 µM, first compound 0.0316 µM
[12] = second compound 10 µM, first compound 0.1 µM
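Note: spheroids exposed to drugs for seven days before readout.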
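Throughout, for viability, T/C: percent viability relative to DMSO vehicle control taken as 100%.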

Compound: O=c1[nH]cc(F)c(=O)[nH]1 + Nc1ccc(C#CCN(C(=O)Cc2ncc(C(F)(F)F)cc2C(F)(F)F)c2ccc(F)cc2)nn1
- IC50 (second compound 0.0316 µM): > 10 µM
- IC50 (second compound 0.1 µM): > 10 µM
- IC50 (second compound 0.316 µM): > 10 µM
- IC50 (second compound 1 µM): > 10 µM
- IC50 (second compound 3.16 µM): > 10 µM
- IC50 (second compound 10 µM): > 10 µM
- viability, T/C [1]: 93.1%
- viability, T/C [2]: 93%
- viability, T/C (second compound 0.0316 µM, first compound 0.316 µM): 99.6%
- viability, T/C (second compound 0.0316 µM, first compound 1 µM): 85.2%
- viability, T/C (second compound 0.0316 µM, first compound 3.16 µM): 78.1%
- viability, T/C (second compound 0.0316 µM, first compound 10 µM): 55.7%
- viability, T/C [3]: 89.2%
- viability, T/C [4]: 98.1%
- viability, T/C (second compound 0.1 µM, first compound 0.316 µM): 95.1%
- viability, T/C (second compound 0.1 µM, first compound 1 µM): 80.4%
- viability, T/C (second compound 0.1 µM, first compound 3.16 µM): 78.8%
- viability, T/C (second compound 0.1 µM, first compound 10 µM): 59.6%
- viability, T/C [5]: 96.1%
- viability, T/C [6]: 98.1%
- viability, T/C (second compound 0.316 µM, first compound 0.316 µM): 98.2%
- viability, T/C (second compound 0.316 µM, first compound 1 µM): 94.7%
- viability, T/C (second compound 0.316 µM, first compound 3.16 µM): 74.4%
- viability, T/C (second compound 0.316 µM, first compound 10 µM): 62%
- viability, T/C [7]: 92.3%
- viability, T/C [8]: 85.3%
- viability, T/C (second compound 1 µM, first compound 0.316 µM): 95.3%
- viability, T/C (second compound 1 µM, first compound 1 µM): 87.2%
- viability, T/C (second compound 1 µM, first compound 3.16 µM): 75.9%
- viability, T/C (second compound 1 µM, first compound 10 µM): 51.3%
- viability, T/C [9]: 94.1%
- viability, T/C [10]: 83%
- viability, T/C (second compound 3.16 µM, first compound 0.316 µM): 91.3%
- viability, T/C (second compound 3.16 µM, first compound 1 µM): 82.4%
- viability, T/C (second compound 3.16 µM, first compound 3.16 µM): 74.1%
- viability, T/C (second compound 3.16 µM, first compound 10 µM): 57.7%
- viability, T/C [11]: 87.4%
- viability, T/C [12]: 88.2%
- viability, T/C (second compound 10 µM, first compound 0.316 µM): 93.5%
- viability, T/C (second compound 10 µM, first compound 1 µM): 90.2%
- viability, T/C (second compound 10 µM, first compound 3.16 µM): 63.1%
- viability, T/C (second compound 10 µM, first compound 10 µM): 57.6%

Compound: Cn1ncnc1[C@H]1c2n[nH]c(=O)c3cc(F)cc(c23)N[C@@H]1c1ccc(F)cc1 + COC1C(OC(N)=O)C(O)C(Oc2ccc3c(O)c(NC(=O)c4ccc(O)c(CC=C(C)C)c4)c(=O)oc3c2C)OC1(C)C
- IC50 (second compound 0.0316 µM): > 0.1 µM
- IC50 (second compound 0.1 µM): > 0.1 µM
- IC50 (second compound 0.316 µM): > 0.1 µM
- IC50 (second compound 1 µM): > 0.1 µM
- IC50 (second compound 3.16 µM): > 0.1 µM
- IC50 (second compound 10 µM): > 0.1 µM
- viability, T/C (second compound 0.0316 µM, first compound 0.000316 µM): 97.8%
- viability, T/C (second compound 0.0316 µM, first compound 0.001 µM): 82.9%
- viability, T/C (second compound 0.0316 µM, first compound 0.00316 µM): 99.7%
- viability, T/C (second compound 0.0316 µM, first compound 0.01 µM): 96.3%
- viability, T/C [1]: 74%
- viability, T/C [2]: 56.1%
- viability, T/C (second compound 0.1 µM, first compound 0.000316 µM): 90.3%
- viability, T/C (second compound 0.1 µM, first compound 0.001 µM): 93.4%
- viability, T/C (second compound 0.1 µM, first compound 0.00316 µM): 110%
- viability, T/C (second compound 0.1 µM, first compound 0.01 µM): 87.2%
- viability, T/C [3]: 69.9%
- viability, T/C [4]: 56.4%
- viability, T/C (second compound 0.316 µM, first compound 0.000316 µM): 91.4%
- viability, T/C (second compound 0.316 µM, first compound 0.001 µM): 78.5%
- viability, T/C (second compound 0.316 µM, first compound 0.00316 µM): 82.5%
- viability, T/C (second compound 0.316 µM, first compound 0.01 µM): 85.4%
- viability, T/C [5]: 74%
- viability, T/C [6]: 66.2%
- viability, T/C (second compound 1 µM, first compound 0.000316 µM): 86.7%
- viability, T/C (second compound 1 µM, first compound 0.001 µM): 83.2%
- viability, T/C (second compound 1 µM, first compound 0.00316 µM): 85.2%
- viability, T/C (second compound 1 µM, first compound 0.01 µM): 92.3%
- viability, T/C [7]: 67.6%
- viability, T/C [8]: 60.9%
- viability, T/C (second compound 3.16 µM, first compound 0.000316 µM): 86.6%
- viability, T/C (second compound 3.16 µM, first compound 0.001 µM): 89.3%
- viability, T/C (second compound 3.16 µM, first compound 0.00316 µM): 89.5%
- viability, T/C (second compound 3.16 µM, first compound 0.01 µM): 78.8%
- viability, T/C [9]: 83.3%
- viability, T/C [10]: 56.1%
- viability, T/C (second compound 10 µM, first compound 0.000316 µM): 86%
- viability, T/C (second compound 10 µM, first compound 0.001 µM): 87%
- viability, T/C (second compound 10 µM, first compound 0.00316 µM): 89.3%
- viability, T/C (second compound 10 µM, first compound 0.01 µM): 76%
- viability, T/C [11]: 74%
- viability, T/C [12]: 58.1%

Reference: PubChem BioAssay AID1963848 (Molecular Pharmacology Branch, DTP, NCI, 2024)
